Where two headings read alike, the source gives them in different places.
Experiments:
BTK [1] = biological target: T1, BTK (Homo sapiens (Human), UniProt Q06187); experiment: Btk kinase assay (HTRF); assay type: biochemical; conditions: [ATP]=80 μM, BTK=3.4 nM
Method in brief: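 HTRF kinase read-out (665/615 nm ratio, excitation 330 nm) after EDTA quench and 1 h detection incubation. Reaction: 3.4 nM BTK, ATP 80 μM, peptide substrate 1 μM, compound, HEPES pH 7.0 buffer, 1 h; IC50 derived using uninhibited and enzyme-free controls.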
Target sequence in this assay (Q06187 whole entry, species assumed): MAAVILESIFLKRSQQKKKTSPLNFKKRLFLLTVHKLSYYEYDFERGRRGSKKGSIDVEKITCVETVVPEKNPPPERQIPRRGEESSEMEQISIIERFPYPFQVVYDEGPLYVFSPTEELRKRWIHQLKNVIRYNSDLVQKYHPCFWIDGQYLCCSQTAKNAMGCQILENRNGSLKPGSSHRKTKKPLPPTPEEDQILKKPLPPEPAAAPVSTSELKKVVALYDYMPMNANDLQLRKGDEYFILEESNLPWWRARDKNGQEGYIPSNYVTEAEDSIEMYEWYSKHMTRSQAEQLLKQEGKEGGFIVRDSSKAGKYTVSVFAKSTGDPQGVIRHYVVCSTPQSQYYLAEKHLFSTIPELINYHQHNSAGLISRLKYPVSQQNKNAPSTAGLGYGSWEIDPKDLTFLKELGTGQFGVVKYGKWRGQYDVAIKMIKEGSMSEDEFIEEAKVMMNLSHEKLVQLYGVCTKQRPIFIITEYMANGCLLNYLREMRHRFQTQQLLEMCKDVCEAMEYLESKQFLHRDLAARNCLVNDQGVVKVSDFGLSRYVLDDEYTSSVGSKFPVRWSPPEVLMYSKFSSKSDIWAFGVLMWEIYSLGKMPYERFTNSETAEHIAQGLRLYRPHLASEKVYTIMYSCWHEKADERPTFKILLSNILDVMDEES

LYN = LYN (Homo sapiens (Human), UniProt P07948); experiment: LYN kinase assay (HTRF); assay type: biochemical; conditions: [ATP]=20 μM, LYN=0.12 nM
LCK = LCK (Homo sapiens (Human), UniProt P06239); experiment: LCK kinase assay (HTRF); assay type: biochemical; conditions: [ATP]=20 μM, LCK=0.2 nM
Ramos cells = experiment: Calcium flux assay, IgM-induced calcium influx in Ramos cells; assay type: cell-based; conditions: Ramos cells stimulated with goat anti-human IgM antibody 10 μg/ml; read-out: Ramos Ca Flux
Procedure: Calcium flux fluorescence-based assays were performed in aFDSS7000EX (Hamamatsu Photonics) fluorometric imaging plate reader according to manufacturer instructions. Compounds to be assayed were dissolved in DMSO, diluted to appropriate concentrations in Ca^2+ buffer ranging from 0 to 10 μM (at a dilution factor of 0.1), added 5 μl (6×) to each well (the final DMSO concentration was 0.1% in each well). Then 12.5 μL 2× dye loading solution (Fluo-4 NW Calcium Assay Kits, Invitrogen) was added per well of a 384-well plate. Afterwards, actively growing Ramos cells (ATCC) in RPM1640 medium supplemented with 10% FBS (Invitrogen) were washed and re-plated in assay buffer (from Fluo-4 NW Calcium Assay Kits, Invitrogen) to approximately 6.4×10^6/ml (80000 cells/12.5 μL in 384-well plates). […] The plates were now ready to be used in an experiment Immediately after the transfer and a 10-s recording of baseline fluorescence, the compound treated cells were stimulated with a goat anti-human IgM antibody (10 μg/ml; Jackson Immuno Research) and read in a FDSS for 240 seconds. Difference between the signal and that at baseline, designated adjusted relative fluorescence unit, was calculated by using a custom Excel (Microsoft, Redmond, Wash.) template to determine IgM-induced calcium influx and its inhibition by compounds. […]

BTK [2] = biological target: T1, BTK; experiment: Btk occupancy in cellular assays (PCI-33380 labeling, Jeko-1 cells); assay type: cell-based; conditions: 100 nM compound, 1.5 h pre-incubation, PCI-33380 probe
Procedure: For PCI-33380 labeling of human B cells, 10^6 Jeko-1 cells were pre-incubated with compound for 1.5 h before labeling. Then cells were treated with PCI-33380 at 5 μM for 1 h. Washed, lysed in Ripa buffer containing sample reducing agent, and analyzed by SDS/PAGE and fluorescent gel scanning using a Typhoon scanner 9500 (GE Healthcare) (Ex, 532 nm; Em, 555 nm). The gel was then blotted and total Btk levels detected by standard Western blot with Btk antibody (CST).
Target sequence in this assay (Q06187 whole entry): as the sequence (Q06187 whole entry, species assumed) above

Btk [3] = biological target: Btk (Mus musculus (Mouse), UniProt P35991); experiment: Btk occupancy in vivo (PBMCs or splenocytes, PCI-33380 labeling); set-up: species or system Babc/L mice; conditions: 25 mg/kg single oral dose, Balb/c mice, after 4 hours
Procedure: For analysis of Btk occupancy in Babc/L mice following oral dosing of compounds after 4 hours. Isolating peripheral blood mononuclear cells (PBMCs) with mouse peripheral blood separation kit (Hao Yang Biological Manufacture CO., LTD, Tianjin) were collected from Babc/L mice (1 ml blood from two mice). Spleens were processed to splenocytes followed by 5 min incubation in red blood cell lysing buffer (from mouse peripheral blood separation kit). PBMCs or splenocytes were then PCI-33380-labeled and lysates analyzed by fluorescent gel scanning as described in cellular assays.

Chain of LYN (P07948 whole entry, species assumed): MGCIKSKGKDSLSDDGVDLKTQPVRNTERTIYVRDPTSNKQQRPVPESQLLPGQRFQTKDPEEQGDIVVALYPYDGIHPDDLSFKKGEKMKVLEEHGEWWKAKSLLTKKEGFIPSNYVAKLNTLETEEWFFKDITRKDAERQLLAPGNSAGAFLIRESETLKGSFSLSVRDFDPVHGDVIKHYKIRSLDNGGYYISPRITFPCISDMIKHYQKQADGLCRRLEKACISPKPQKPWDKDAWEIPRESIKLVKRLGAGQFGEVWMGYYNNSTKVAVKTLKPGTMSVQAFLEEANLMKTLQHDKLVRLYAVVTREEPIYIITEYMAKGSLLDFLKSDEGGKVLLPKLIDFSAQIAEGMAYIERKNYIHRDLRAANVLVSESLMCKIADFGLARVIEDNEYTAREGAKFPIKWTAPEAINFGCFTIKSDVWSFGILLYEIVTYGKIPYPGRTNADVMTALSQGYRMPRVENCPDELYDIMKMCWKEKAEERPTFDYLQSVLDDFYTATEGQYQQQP
Chain of LCK (P06239 whole entry, species assumed): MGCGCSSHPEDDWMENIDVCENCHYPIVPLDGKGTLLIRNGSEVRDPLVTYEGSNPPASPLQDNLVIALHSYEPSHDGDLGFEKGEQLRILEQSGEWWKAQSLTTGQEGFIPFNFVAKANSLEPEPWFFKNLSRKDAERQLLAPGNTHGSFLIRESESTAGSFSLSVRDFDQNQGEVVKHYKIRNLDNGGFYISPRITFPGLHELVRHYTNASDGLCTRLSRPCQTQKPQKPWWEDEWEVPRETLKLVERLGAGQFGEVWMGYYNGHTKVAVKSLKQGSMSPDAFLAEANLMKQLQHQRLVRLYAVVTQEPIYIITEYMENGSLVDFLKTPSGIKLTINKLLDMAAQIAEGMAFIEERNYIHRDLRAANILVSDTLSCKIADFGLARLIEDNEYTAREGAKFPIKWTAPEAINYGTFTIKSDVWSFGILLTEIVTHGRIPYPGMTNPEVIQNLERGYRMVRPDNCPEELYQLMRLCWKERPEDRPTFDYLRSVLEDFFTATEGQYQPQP
Chain of Btk (P35991 whole entry): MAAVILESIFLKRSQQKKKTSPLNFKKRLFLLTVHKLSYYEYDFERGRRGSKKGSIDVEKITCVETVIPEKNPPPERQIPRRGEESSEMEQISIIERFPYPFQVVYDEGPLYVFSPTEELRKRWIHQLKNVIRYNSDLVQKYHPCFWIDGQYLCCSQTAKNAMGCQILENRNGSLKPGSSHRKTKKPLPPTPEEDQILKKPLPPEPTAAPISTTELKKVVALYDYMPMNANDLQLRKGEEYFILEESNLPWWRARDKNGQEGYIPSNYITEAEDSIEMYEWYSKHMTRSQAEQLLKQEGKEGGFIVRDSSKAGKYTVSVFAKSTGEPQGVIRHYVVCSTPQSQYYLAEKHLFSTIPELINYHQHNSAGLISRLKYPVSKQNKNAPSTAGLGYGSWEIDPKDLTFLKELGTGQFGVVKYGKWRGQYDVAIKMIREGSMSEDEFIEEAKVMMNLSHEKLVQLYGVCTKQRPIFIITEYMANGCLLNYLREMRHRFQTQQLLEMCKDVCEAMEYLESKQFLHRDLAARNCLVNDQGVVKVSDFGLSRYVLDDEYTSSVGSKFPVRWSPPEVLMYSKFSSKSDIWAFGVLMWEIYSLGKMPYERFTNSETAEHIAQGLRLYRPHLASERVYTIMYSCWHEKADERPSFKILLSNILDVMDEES

Row | SMILES | IC50 (BTK [1]; Table 2, read-out: BTK IC50) [nM] | IC50 (BTK [1]; read-out: BTK Inhibition) [nM] | IC50 (LYN) [nM] | IC50 (LCK) [nM] | IC50 (Ramos cells) [nM] | occupancy of the active site of Btk (BTK [2]) | Btk occupancy in vivo (Btk [3])
1 | C=CC(=O)N1CC[C@@H](n2c(=O)n(-c3ccc(Oc4cccc(C)c4)cc3)c3cnccc32)C1 [Example 4, (R)-1-(1-acryloylpyrrolidin-3-yl)-3-(4-(m-tolyloxy)phenyl)-1H-imidazo[4,5-c]pyridin-2(3H)-one] | ≤ 10 | ≤ 10 | 1000 to 10000 | 1000 to 10000 | 10 to 100 | fully occupy | 
2 | C=CC(=O)N1CC[C@@H](n2c(=O)n(-c3ccc(Oc4ccccc4)c(Cl)c3)c3cnccc32)C1 [Example 5, (R)-1-(1-acryloylpyrrolidin-3-yl)-3-(3-chloro-4-phenoxyphenyl)-1H-imidazo[4,5-c]pyridin-2(3H)-one] | ≤ 10 | ≤ 10 | ≥ 10000 | ≥ 10000 | 10 to 100 | fully occupy | full occupancy

Source: patent US10358446B2, “Bruton's tyrosine kinase inhibitors” (Zibo Biopolar Changsheng Pharmaceutical Co. Ltd., priority 2015, dated 2019)
